Laboratory results reported in US4231936A, “Mitomycin C derivatives” (priority 1977, dated 1980).

Key:
[1] = background statement; cited from earlier work
[2] = background statement; cited from earlier work; remark: listed apart in the source
[3] = tested on: Staphylococcus aureus ATCC 6538P; test: Minimum inhibitory concentration (Table I); assay type: cell-based
Text: (§1) Comparative data similarly obtained by using mitomycin A, mitomycin C and 7-N-phenyl mitomycin C are also shown in this table

[4] = tested on: Bacillus subtilis ATCC 10707; test: Minimum inhibitory concentration (Table I); assay type: cell-based
Text: as §1

[5] = tested on: Klebsiella pneumoniae ATCC 10031; test: Minimum inhibitory concentration (Table I); assay type: cell-based
Text: as §1

[6] = tested on: Shigella sonnei ATCC 9290; test: Minimum inhibitory concentration (Table I); assay type: cell-based
Text: as §1

For `CO[C@@]12[C@H](COC(N)=O)C3=C(C(=O)C(C)=C(N)C3=O)N1C[C@@H]1N[C@@H]12` [II, mitomycin C], the toxicity [1] is listed as “relatively high toxicity”, the antitumor activity [2] is listed as “interesting antitumor activity” and the minimum inhibitory concentration [3] is listed as 0.049. For the same compound, the minimum inhibitory concentration [4] was < 0.025, the minimum inhibitory concentration [5] was < 0.025 and the minimum inhibitory concentration [6] was 1.563.
